According to patent publication US20030087906A1, “NITROGEN SUBSTITUTED BIARYL PURINE DERIVATIVES AS POTENT ANTIPROLIFERATIVE AGENTS” (priority 2001, published 2003):

Assays:
MDA-MB-231/ATCC = test: NCI 60-cell line growth inhibition assay; assay type: cell-based; details: Homo sapiens; MDA-MB-231/ATCC (Breast)
NCI/ADR-RES = test: NCI 60-cell line growth inhibition assay; assay type: cell-based; details: Homo sapiens
SF-268 = test: NCI 60-cell line growth inhibition assay; assay type: cell-based; details: Homo sapiens
SF-295 = test: NCI 60-cell line growth inhibition assay; assay type: cell-based; details: Homo sapiens
U251 = test: NCI 60-cell line growth inhibition assay; assay type: cell-based; details: Homo sapiens, U-251
COLO 205 = test: NCI 60-cell line growth inhibition assay; assay type: cell-based; details: Homo sapiens
HCC-2998 = test: NCI 60-cell line growth inhibition assay; assay type: cell-based; details: Homo sapiens
HCT-116 = test: NCI 60-cell line growth inhibition assay; assay type: cell-based; details: Homo sapiens
HCT-15 = test: NCI 60-cell line growth inhibition assay; assay type: cell-based; details: Homo sapiens
KM12 = test: NCI 60-cell line growth inhibition assay; assay type: cell-based; details: Homo sapiens
SW-620 = test: NCI 60-cell line growth inhibition assay; assay type: cell-based; details: Homo sapiens
CCRF-CEM = test: NCI 60-cell line growth inhibition assay; assay type: cell-based; details: Homo sapiens
K-562 = test: NCI 60-cell line growth inhibition assay; assay type: cell-based; details: Homo sapiens, K562
MOLT-4 = test: NCI 60-cell line growth inhibition assay; assay type: cell-based; details: Homo sapiens
SR = test: NCI 60-cell line growth inhibition assay; assay type: cell-based; details: Homo sapiens
M14 = test: NCI 60-cell line growth inhibition assay; assay type: cell-based; details: Homo sapiens
MALME-3M = test: NCI 60-cell line growth inhibition assay; assay type: cell-based; details: Homo sapiens
SK-MEL-2 = test: NCI 60-cell line growth inhibition assay; assay type: cell-based; details: Homo sapiens; SK-MEL-2 (Melanoma)
SK-MEL-28 = test: NCI 60-cell line growth inhibition assay; assay type: cell-based; details: Homo sapiens
SK-MEL-5 = test: NCI 60-cell line growth inhibition assay; assay type: cell-based; details: Homo sapiens
UACC-257 = test: NCI 60-cell line growth inhibition assay; assay type: cell-based; details: Homo sapiens
UACC-62 = test: NCI 60-cell line growth inhibition assay; assay type: cell-based; details: Homo sapiens
A549/ATCC = test: NCI 60-cell line growth inhibition assay; assay type: cell-based; details: Homo sapiens
EKVX = test: NCI 60-cell line growth inhibition assay; assay type: cell-based; details: Homo sapiens
HOP-62 = test: NCI 60-cell line growth inhibition assay; assay type: cell-based; details: Homo sapiens
HOP-92 = test: NCI 60-cell line growth inhibition assay; assay type: cell-based; details: Homo sapiens
NCI-H322M = test: NCI 60-cell line growth inhibition assay; assay type: cell-based; details: Homo sapiens
NCI-H460 = test: NCI 60-cell line growth inhibition assay; assay type: cell-based; details: Homo sapiens
OVCAR-3 = test: NCI 60-cell line growth inhibition assay; assay type: cell-based; details: Homo sapiens
OVCAR-5 = test: NCI 60-cell line growth inhibition assay; assay type: cell-based; details: Homo sapiens
SK-OV-3 = test: NCI 60-cell line growth inhibition assay; assay type: cell-based; details: Homo sapiens
DU-145 = test: NCI 60-cell line growth inhibition assay; assay type: cell-based; details: Homo sapiens
786-0 = test: NCI 60-cell line growth inhibition assay; assay type: cell-based; details: Homo sapiens
A498 = test: NCI 60-cell line growth inhibition assay; assay type: cell-based; details: Homo sapiens
TK-10 = test: NCI 60-cell line growth inhibition assay; assay type: cell-based; details: Homo sapiens; TK-10 (Renal)
UO-31 = test: NCI 60-cell line growth inhibition assay; assay type: cell-based; details: Homo sapiens
MDA-N = test: NCI 60-cell line growth inhibition assay; assay type: cell-based; details: Homo sapiens; Breast, MDA-N
SNB-75 = test: NCI 60-cell line growth inhibition assay; assay type: cell-based; details: Homo sapiens; CNS, SNB-75
[1] = system: Tumor Cells in Hollow Fibers; test: NCI Hollow Fiber Assay (in vivo evaluation)

With `CC[C@H](CO)Nc1nc(NCc2ccc(-c3ccc(OC)cc3)cc2)c2ncn(C(C)C)c2n1` [Compound 43] the GI50 (MDA-MB-231/ATCC) was 3.2 µM, the GI50 (NCI/ADR-RES; NCI/ADR-RES (Breast)) was 5.2 µM and the GI50 (SF-268; SF-268 (CNS)) was 3 µM. For the same compound, the GI50 (SF-295; SF-295 (CNS)) was 4 µM, the GI50 (U251; U251 (CNS)) was 2.3 µM and the GI50 (COLO 205; COLO 205 (Colon)) was 1.6 µM. The GI50 (HCC-2998; HCC-2998 (Colon)) was 3.4 µM, the GI50 (HCT-116; HCT-116 (Colon)) was 2.1 µM and the GI50 (HCT-15; HCT-15 (Colon)) was 3.9 µM. It also gave a GI50 (KM12; KM12 (Colon)) of 2.3 µM, a GI50 (SW-620; SW-620 (Colon)) of 1.6 µM and a GI50 (CCRF-CEM; CCRF-CEM (Leukemia)) of 2.8 µM. The GI50 (K-562; K-562 (Leukemia)) was 3.1 µM, the GI50 (MOLT-4; MOLT-4 (Leukemia)) was 2 µM and the GI50 (SR; SR (Leukemia)) was 2.2 µM. For the same compound, the GI50 (M14; M14 (Melanoma)) was 2.2 µM, the GI50 (MALME-3M; MALME-3M (Melanoma)) was 3 µM and the GI50 (SK-MEL-2) was 61.7 µM. For the same compound, the GI50 (SK-MEL-28; SK-MEL-28 (Melanoma)) was 2.3 µM, the GI50 (SK-MEL-5; SK-MEL-5 (Melanoma)) was 2.1 µM and the GI50 (UACC-257; UACC-257 (Melanoma)) was 4.8 µM. The GI50 (UACC-62; UACC-62 (Melanoma)) was 3.3 µM, the GI50 (A549/ATCC; A549/ATCC (Non-Small Cell Lung)) was 4.1 µM and the GI50 (EKVX; EKVX (Non-Small Cell Lung)) was 2.8 µM. The GI50 (HOP-62; HOP-62 (Non-Small Cell Lung)) was 3.3 µM, the GI50 (HOP-92; HOP-92 (Non-Small Cell Lung)) was 2.6 µM and the GI50 (NCI-H322M; NCI-H322M (Non-Small Cell Lung)) was 3.5 µM. For the same compound, the GI50 (NCI-H460; NCI-H460 (Non-Small Cell Lung)) was 3.2 µM, the GI50 (OVCAR-3; OVCAR-3 (Ovarian)) was 9.3 µM and the GI50 (OVCAR-5; OVCAR-5 (Ovarian)) was 3.6 µM. For the same compound, the GI50 (SK-OV-3; SK-OV-3 (Ovarian)) was 72.4 µM, the GI50 (DU-145; DU-145 (Prostate)) was 2.6 µM and the GI50 (786-0; 786-0 (Renal)) was 3.1 µM. For the same compound, the GI50 (A498; A498 (Renal)) was 3 µM, the GI50 (TK-10) was 3.2 µM and the GI50 (UO-31; UO-31 (Renal)) was 2.8 µM.
Compound `CC[C@H](CO)Nc1nc(NCc2ccc(-c3ccccn3)cc2)c2ncn(C(C)C)c2n1` [Compound 17] has a GI50 (MDA-N) of 0.11 µM, a GI50 (NCI/ADR-RES; Breast, NCI/ADR-RES) of 0.28 µM and a GI50 (SF-268; CNS, SF-268) of 0.04 µM. The GI50 (SF-295; CNS, SF-295) was 0.19 µM, the GI50 (SNB-75) was 0.02 µM and the GI50 (U251; CNS, U251) was 0.4 µM. For the same compound, the GI50 (COLO 205; Colon, COLO 205) was 0.05 µM, the GI50 (HCC-2998; Colon, HCC-2998) was 0.03 µM and the GI50 (HCT-116; Colon, HCT-116) was 0.16 µM. For the same compound, the GI50 (HCT-15; Colon, HCT-15) was 0.04 µM, the GI50 (KM12; Colon, KM12) was 0.03 µM and the GI50 (SW-620; Colon, SW-620) was 0.01 µM. The GI50 (CCRF-CEM; Leukemia, CCRF-CEM) was 0.16 µM, the GI50 (K-562; Leukemia, K-562) was 0.16 µM and the GI50 (MOLT-4; Leukemia, MOLT-4) was 0.25 µM. For the same compound, the GI50 (SR; Leukemia, SR) was 0.5 µM, the GI50 (M14; Melanoma, M14) was 0.03 µM and the GI50 (MALME-3M; Melanoma, MALME-3M) was 19.9 µM. For the same compound, the GI50 (SK-MEL-28; Melanoma, SK-MEL-28) was 0.12 µM, the GI50 (SK-MEL-5; Melanoma, SK-MEL-5) was 0.32 µM and the GI50 (UACC-257; Melanoma, UACC-257) was 0.2 µM. For the same compound, the GI50 (UACC-62; Melanoma, UACC-62) was 0.27 µM, the GI50 (A549/ATCC; Non-Small Cell Lung, A549/ATCC) was 0.03 µM and the GI50 (EKVX; Non-Small Cell Lung, EKVX) was 2.51 µM. For the same compound, the GI50 (HOP-62; Non-Small Cell Lung, HOP-62) was 0.2 µM, the GI50 (HOP-92; Non-Small Cell Lung, HOP-92) was 1.58 µM and the GI50 (NCI-H322M; Non-Small Cell Lung, NCI-H322M) was > 1000 µM. The GI50 (NCI-H460; Non-Small Cell Lung, NCI-H460) was 0.41 µM, the GI50 (OVCAR-3; Ovarian, OVCAR-3) was 0.65 µM and the GI50 (OVCAR-5; Ovarian, OVCAR-5) was 0.26 µM. It also gave a GI50 (SK-OV-3; Ovarian, SK-OV-3) of 0.4 µM, a GI50 (DU-145; Prostate, DU-145) of 0.63 µM and a GI50 (786-0; Renal, 786-0) of 0.25 µM. For the same compound, the GI50 (A498; Renal, A498) was 1.58 µM, the GI50 (UO-31; Renal, UO-31) was 0.1 µM and the “IP Score” value ([1]; IP fibers) was 8. The SC score ([1]; SC fibers) was 0.
